Assay results published in US10532084B2, “Chondrocyte extracellular matrix-derived peptide” (EYEBIO KOREA, priority 2016, dated 2020).
“Also recorded” adds a separate entry of the source.

How the values were obtained:
[1] = tested on: corneal epithelial cell; assay: Corneal epithelial cell detachment (H&E), dry eye model; type: in vivo, NOD.B10.H2b mice; settings: 10 days of treatment after removal of dry stress; DS 10D 2.29±0.57
Protocol: (§1) NOD.B10.H2^b mice were purchased from Jackson Laboratory (Bar Harbor, Me., USA). Animal experiments were carried out in accordance with the guidelines approved by the University of Inje (No.; 2014-029) and ARVO regarding animal use for eye and vision research. NOD.B10.H2^b mice at 12-16 weeks old were exposed to 40-50% ambient humidity and ventilation using a fan for 18 hours a day as dry stress and subcutaneously injected with 0.5 mg/0.2 mL muscarinic receptor blocker. In addition, scopolamine hydrobromide (Sigma-Aldrich, St. Louis, Mo.) was injected alternately to the […] hips four times a day for 10 days at 9 am, […].
(§2) After 10 days of ocular dry stress, the scopolamine injection was stopped, and switched to a normal humidity and temperature environment and the dry stress was removed, 10 mg/ml Hyp-[…] and collagen were dissolved in normal saline to administer 5 μL each 5 times a day for 10 days, and normal saline and 0.1% HA were administered to the eyeball 5 times a day for 10 days. Three mice were used in each of the six experimental groups using both eyes of the mice and all experiments were repeated.

[2] = Tear amount by phenol red-impregnated cotton threads, dry eye model; type: in vivo, NOD.B10.H2b mice; settings: 10 days of treatment after removal of dry stress; normal 0.22±0.01, DS 10D 0.03±0.01
Protocol: Tear production was measured by a method reported using phenol red-impregnated cotton threads (Zone-Quick, Oasis, Glendora, Calif.) (Villareal A L, Farley W, Pflugfelder S C. Effect of topical ophthalmic epinastine and olopatadine on tear volume in mice. Eye Contact Lens. 2006; 32 (6): 272-276.). […] The measured lachrymal fluid in the millimeter was compared with a standard curve expressed as a cotton thread which was soaked with the expected tear amount of mouse of basic solution ([…] of 0.9% salt and 5 mL of 5 N NaOH) for 20 seconds.
The degree of tear generation was measured by phenol red-impregnated cotton threads.

[3] = tested on: conjunctival goblet cells; assay: Distribution of conjunctival goblet cells (PAS staining), dry eye model; type: in vivo, NOD.B10.H2b mice; settings: 10 days of treatment after removal of dry stress; normal 14.38±0.44, DS 10D 6.02±0.29
Protocol: as §1, §2
The distribution of conjunctival goblet cells according to eye drop in dry eye mice was observed.

[4] = tested on: corneal surface; assay: Corneal surface irregularity (smoothness) score, dry eye model; type: in vivo, NOD.B10.H2b mice; settings: day 10 after removal of dry stress; grades 0-5; normal 0.33±0.58, DS 10D 4.33±0.58
Protocol: as §1, §2
As for the curvature of the corneal surface, a reflected image of the white ring was obtained from an optical fiber ring illumination of a stereoscopic microscope (SZX7; Olympus) after anesthetizing the animal. Corneal smoothness was assessed by grading the irregularity of corneal epithelial cells reflected in the white ring of the digital image. Corneal irregularity severity score was calculated by dividing the reflection ring into quadrants and grading into 5 grades according to degree of irregularity. No irregularity is grade 0, irregularity of ¼ (quarter) is grade 1; irregularity of 2/4 (two-quarters) is grade 2; irregularity of ¾ (three-quarters) is grade 3; entire irregularity is grade 4; and […] and thus all the rings were confirmed.
The degree of corneal curvature in each experiment group was quantified to confirm the bendability of the corneal surface.

[5] = tested on: VEGF, ICAM and MCP-1; assay: Quantitative real-time RT-PCR of retina and choroid, laser CNV model; type: in vivo, C57BL/6 mice; settings: mouse, 14 days after laser; 5 μg; laser-treated group increased about 55 times
Protocol: In order to confirm the inhibitory effect of hydroxy proline-GQDGLAGPK on neovascularization-related gene expression, RNA was extracted using RNeasy Mini kit (Qiagen) in mixture of retina and choroid of extracted mice eyeballs, and cDNA was synthesized by using oligo(dT) primer and reverse transcriptase. PCR products were amplified using the specific primer set (COSMOGENETECH, Korea) shown in Table 1 and SYBR Green PCR 2X PreMix (Enzynomics) and for the PCR conditions, the samples were incubated at 95° C. for 10 minutes, and 40 PCR cycles at 95° C. for 15 seconds, 60° C. for 30 seconds and 72° C. for 15 seconds, were performed. Relative quantification was calculated using 2-(DDCT) method [Livak and Schmittgen, 2001; DDCT=(CT, target-CT, actin) control group (CT, target-CT, actin) control group].
After 14 days of laser irradiation in mouse, RNA was extracted from retina and choroid to analyze the gene expression by real-time RT-PCR.

[6] = tested on: choroidal neovascularization (CNV); assay: Laser-induced choroidal neovascularization (CNV), lesion size by retina-choroid flat-mount; type: in vivo, C57BL/6 mice; settings: mouse, laser irradiation; 2 μg intraocular injection for 5 days
Protocol: C57BL/6 mice were purchased from Orient Bio and the animal experiments was carried out in accordance with the guidelines approved by the University of Inje (No, 2013-053) and ARVO regarding animal use for eye and vision studies. 6-week-old C57BL/6 mice were treated with diode green laser (532 nm, 150 mW, 0.1 sec, […], photocoagulator) to damage the retinal optic nerve area. […] The above experiment for each experiment group was performed using both eyes of five mice each. […]
The mouse was anesthetized and injected with 25 mg/ml of FITC-dextran in […] of retro-orbital. After 30 minutes, the mouse was euthanized and the eyeball was extracted and fixed with 10% formalin and then, the cornea and lens were removed and flat mounted on the cover glass. The neovasculature stained with FITC-dextran was observed by fluorescence microscopy (Leica) and the lesion size was measured by Image J program. […]

[7] = tested on: human vascular endothelial cells (HUVEC); assay: Tubing assay (VEGF-induced tube formation); type: cell-based; settings: 50 ng/ml recombinant human VEGF, 4 hours
Protocol: The antiangiogenic effect of hydroxy proline-GQDGLAGPK was confirmed by tubing assay using human vascular endothelial cells (HUVEC).
HUVEC cells were stained with calcein-AM and then dispensed on a Matrigel-coated 48-well plate, treated with collagen, CPI and CPII at concentrations together with 50 ng/ml of recombinant human VEGF, and after 4 hours of incubation at 37° C., tube formation was observed by fluorescence microscopy (Leica) and tube length was analyzed by Image lab software (Bio-Rad Laboratories).
Tubing assay using human vascular endothelial cells (HUVEC) was performed to confirm the anti-angiogenic effect of hydroxyl proline-GQDGLAGPK.

Compound | corneal epithelial cell detachment [1] | tear amount [2] | conjunctival goblet cells [3] | degree of curvature (irregularity score) of the corneal surface [4] | VEGF gene expression in retina and choroid [5] | CNV lesions [6] | inhibition of tube formation (angiogenesis) [7]
O=c1ccn([C@@H]2O[C@H](COP(=O)([O-])OP(=O)([O-])OP(=O)([O-])OP(=O)([O-])OC[C@H]3O[C@@H](n4ccc(=O)[nH]c4=O)[C@H](O)[C@@H]3O)[C@@H](O)[C@H]2O)c(=O)[nH]1.[Na+].[Na+].[Na+].[Na+] [DQS, reference compound] | 0.095±0.17 /0.1 mm^2 | 0.16 ± 0.02 µL | 8.86±0.29 /0.1 mm^2 | 3.0±1.0 points |  |  | 
Avastin: a remedy of an age-related macular degeneration; positive control [reference compound] |  |  |  |  | decreased to the level similar to that of the laser-untreated group |  | 
GDRGD [CPI] |  |  |  |  |  | reduced; also recorded: decreased | significant inhibition of angiogenesis
collagen [reference compound] | 0.86±0.29 /0.1 mm^2 | 0.13 ± 0.02 µL | 11.05±0.33 /0.1 mm^2 | 3.67±1.16 points |  | reduced; also recorded: decreased | significant inhibition of angiogenesis
